Data on one compound can be found in ChEMBL document CHEMBL4304776, “Indicaxanthin, a multi-target natural compound from Opuntia ficus-indica fruit: From its poly-pharmacological effects to biochemical mechanisms and molecular modelling studies” (Eur J Med Chem, 2019).

The species entered for one data set is Homo sapiens. Nature of the data set: Binding affinity to human LDL assessed per mg of protein.
The subject of data set [1] is B16-F10. As to the kind of experiment: Antitumor activity against […] cells xenografted in C57BL/6 mouse assessed as reduction in tumor volume at 3.2 mg/kg, po measured after 14 days post transfection relative to control. The class given is functional. The note with it: 336 h.
Data set [2] is described as follows: Drug concentration in rat brain at 2 umol/kg, po after 2.5 hrs. The class given is ADME, organism-based. The note with it: read-out: Ct.
The nature of data set [3]: Drug concentration in rat brain cortex at […], po after 1 hr. The class given is ADME, organism-based. The note with it: read-out: Ct.
Data set [4] is described as follows: Drug concentration in rat brain cerebellum at […], po after 1 hr. The class given is ADME, organism-based. The note with it: read-out: Ct.
The next data set relates to Caco-2. Nature of the data set: Antiproliferative activity against human Caco2 cells assessed as reduction in cell viability after 48 hrs by MTT assay. The class given is functional, cell-based. The note with it: Caco-2, 48 h. A general note: Formazan colour is commonly taken as a measure of viable cells.
The subject of another data set is HUVEC. Nature of the data set: Antiinflammatory activity in HUVEC assessed as reduction in TNF-alpha induced ICAM1 protein expression at 5 uM incubated for 5 hrs followed by TNFalpha-induction and measured after 16 hrs by flow cytometric analysis relative to control. The note with it: Homo sapiens. The class given is functional.
Data set [5] relates to B16-F10. As to the kind of experiment: Antitumor activity against […] cells xenografted in C57BL/6 mouse assessed as reduction in CXCL1 level at 3.2 mg/kg, po measured after 14 days post transfection relative to control. The class given is functional. The note with it: 336 h. On the technique in general: Xenograft models place foreign cells or tissue in a host animal.

The subject of data set [6] is B16-F10. Nature of the data set: Antitumor activity against […] cells xenografted in C57BL/6 mouse assessed as reduction in tumor weight at 3.2 mg/kg, po measured after 14 days post transfection relative to control. The class given is functional. Particulars: 336 h.
A short description of data set [7]: Plasma concentration in rat at 2 uM/kg, po after 2.5 hrs. The note with it: in vivo. The class given is ADME, organism-based.

By inhibition in vivo is commonly meant the percentage by which the read-out fell short of the control. For orientation: IC50 means the concentration that inhibits the measured activity by half. As usually defined, the inhibition is the relative decrease from the control value, in per cent. In the case of `O=C(O)C1=C/C(=C/C=[N+]2/CCC[C@H]2C(=O)[O-])C[C@@H](C(=O)O)N1`, the Bmax in the data set filed under Homo sapiens stood at 0.52 nmol. In addition, the figures for the inhibition in vivo at 3.2 mg/kg in the data set on B16-F10 [1], with B16-F10 [5] and in the data set with B16-F10 [6] were 86%, 42% and 83%, respectively. The concentration at 2.5 h in data set [2] came out at 20 ng/g. For the same compound, the concentration at 1 h in [3] stood at 50 ng/g; in data set [4] it was 90 ng/g. Further, the IC50 in the data set on Caco-2 came out at 115 µM. Further, the inhibition at 5 µM with HUVEC was -15%. This compound also displayed a Cp in data set [7] of 200 nM.
